Values of other authors, collected in patent US20230364095A1, “TOPICAL TREATMENT OF VITILIGO” (INCYTE CORPORATION, priority 2020, published 2023).
Like-named read-outs stand apart in the source and are kept apart here.

System: patients with vitiligo

## N#CC[C@H](C1CCCC1)n1cc(-c2ncnc3[nH]ccc23)cn1 [ruxolitinib, (R)-3-(4-(7H-pyrrolo[2,3-d]pyrimidin-4-yl)-1H-pyrazol-1-yl)-3-cyclopentylpropanenitrile]
Oral 20 mg BID for 20 weeks, patient with alopecia areata and vitiligo
  Clinical outcome (case report): hair regrowth as well as repigmentation of areas affected with vitiligo

## C[C@@H]1CCN(C(=O)CC#N)C[C@@H]1N(C)c1ncnc2[nH]ccc12 [tofacitinib]
Oral 5 mg QD, after 5 months, widespread and progressive vitiligo
  Clinical outcome (case report): near complete repigmentation
